Key:
[1] = Enzyme substrate degradation in culture media at various temperatures (fluorescence); assay type: physicochemical; details: 0.3 mg/mL; for MEASURED FLUORESCENCE, RFU 70° C. 15 min: 70° C. dry heat block 15 min; for MEASURED FLUORESCENCE, RFU 100° C. 15 + 15 min: 100° C. 15 min, second time 15 min; for MEASURED FLUORESCENCE, RFU 100° C. 15 min: 100° C. heat block 15 min; for MEASURED FLUORESCENCE, RFU RT 15 min: room temperature (24.5° C.)
Protocol: Culture media was prepared by dissolving 5 g/L peptone C (BD 211921) and 12 g/L phytone peptone (BD BBL 211906) in deionized water. The pH was adjusted with 1 N NaOH or 0.1 N HCl, the media brought to volume, and then filter sterilized with a 0.22 micron PES filter. Stock solutions ([…]) of 8′-fluoro-4′-methylumbelliferyl-α-D-glucopyranoside, 6′-fluoro-4′-methylumbelliferyl-α-D-glucopyranoside, and 4-methylumbelliferyl-α-D-glucopyranoside were prepared in DMSO. The aforementioned substrates were added to culture media at a final concentration of 0.1 mg/ml and media were then 0.22 μm filter sterilized.
(§1) One milliliter of filter-sterilized culture media (pH 6) containing 0.3 mg/ml of 8′-fluoro-4′-methylumbelliferyl-[…]-D-glucopyranoside substrate was transferred to three 1.5 ml microcentrifuge tubes. One of the 1.5 ml tubes was kept at room temperature (24.5° C.). The second tube was placed in a 70° C. dry heat block for 15 min and the third tube was placed in a 100° C. heat block for 15 min. Tubes were kept at room temperature for 30 min following heat exposure, briefly vortexed and centrifuged to collect liquid. One hundred microliters of culture media with substrate from each of the tubes was transferred to two wells (100 microliters per well) of a black 96-well microtiter plate with (NUNC #165301, Thermo Fisher Scientific). The top of the plate was covered with an optically clear sealing film (product #4311971, Applied Biosystems Corporation). Fluorescence readings (360 nm excitation/455 nm emission at 50% gain) were taken from the top of the plate.
(§2) The tube exposed to 100° C. (with 800 ul of remaining media with substrate) was exposed for a second time to 100° C. for 15 min in a dry heat block. One hundred microliters of culture media with substrate from the tube was transferred to two wells (100 microliters per well) of a black 96-well microtiter plate with (NUNC #165301, Thermo Fisher Scientific). The top of the plate was covered with an optically clear sealing film (product #4311971, Applied Biosystems Corporation). Fluorescence readings (360 nm excitation/455 nm emission at 50% gain) were taken from the top of the plate. In Table 9, the mean fluorescence values detected (RFU) for each of the heating conditions are reported.
as §1, with “7)” for “6)”
as §2, with “10,” for “9,”, “reported. […]” for “reported.”

[2] = tested on: Geobacillus stearothermophilus spores (ATCC 7953); assay: Fluorescence from enzyme substrates incubated with Geobacillus stearothermophilus spores in culture media; assay type: cell-based; details: substrate 0.1 mg/mL, 60° C.
[3] = pH 6 culture media, no spores, 360 nm excitation/455 nm emission
[4] = pH 6 culture media, 5×10^3 spores
[5] = pH 6 culture media, 5×10^6 spores
[6] = pH 7 culture media, 5×10^3 spores
[7] = pH 7 culture media, 5×10^6 spores
[8] = pH 8 culture media, 5×10^3 spores
[9] = pH 8 culture media, 5×10^6 spores
[10] = pH 9 culture media, 5×10^3 spores
[11] = pH 9 culture media, 5×10^6 spores

SMILES: Cc1cc(=O)oc2c(F)c(O[C@H]3O[C@H](CO)[C@@H](O)[C@H](O)[C@H]3O)ccc12 [Example 1, 8′-Fluoro-4′-methylumbelliferyl […]-D-glucopyranoside]
- MEASURED FLUORESCENCE, RFU 70° C. 15 min ([1]; pH 6 culture media): 799.5 RFU
- MEASURED FLUORESCENCE, RFU 100° C. 15 + 15 min ([1]; pH 6 culture media): 1114.5 RFU
- MEASURED FLUORESCENCE, RFU 100° C. 15 min ([1]; pH 6 culture media): 957.5 RFU
- MEASURED FLUORESCENCE, RFU RT 15 min [1, 3]: 751.5 RFU
- MEASURED FLUORESCENCE, RFU 70° C. 15 min ([1]; pH 7 culture media): 759.5 RFU
- MEASURED FLUORESCENCE, RFU 100° C. 15 + 15 min ([1]; pH 7 culture media): 1529 RFU
- MEASURED FLUORESCENCE, RFU 100° C. 15 min ([1]; pH 7 culture media): 1195 RFU
- MEASURED FLUORESCENCE, RFU RT 15 min ([1]; pH 7 culture media): 740.5 RFU
- MEASURED FLUORESCENCE, RFU 70° C. 15 min ([1]; pH 8 culture media): 832 RFU
- MEASURED FLUORESCENCE, RFU 100° C. 15 + 15 min ([1]; pH 8 culture media): 1543 RFU
- MEASURED FLUORESCENCE, RFU 100° C. 15 min ([1]; pH 8 culture media): 1274 RFU
- MEASURED FLUORESCENCE, RFU RT 15 min ([1]; pH 8 culture media): 774 RFU
- MEASURED FLUORESCENCE, RFU 70° C. 15 min ([1]; pH 9 culture media): 905.5 RFU
- MEASURED FLUORESCENCE, RFU 100° C. 15 + 15 min ([1]; pH 9 culture media): 1770.5 RFU
- MEASURED FLUORESCENCE, RFU 100° C. 15 min ([1]; pH 9 culture media): 1343.5 RFU
- MEASURED FLUORESCENCE, RFU RT 15 min ([1]; pH 9 culture media): 811.5 RFU
- MEASURED FLUORESCENCE, RFU +5 min [2, 4]: 1212 RFU
- MEASURED FLUORESCENCE, RFU +30 min [2, 4]: 5600 RFU
- MEASURED FLUORESCENCE, RFU 10 sec [2, 5]: 30514 RFU
- MEASURED FLUORESCENCE, RFU +5 min [2, 5]: 34348 RFU
- MEASURED FLUORESCENCE, RFU +10 min [2, 5]: 32547 RFU
- MEASURED FLUORESCENCE, RFU +30 min [2, 5]: 30518 RFU
- MEASURED FLUORESCENCE, RFU 10 sec [2, 6]: 886 RFU
- MEASURED FLUORESCENCE, RFU 10 sec [2, 7]: 49649 RFU
- MEASURED FLUORESCENCE, RFU +5 min [2, 7]: 54906 RFU
- MEASURED FLUORESCENCE, RFU +10 min [2, 7]: 52619 RFU
- MEASURED FLUORESCENCE, RFU +30 min [2, 7]: 49458 RFU
- MEASURED FLUORESCENCE, RFU 10 sec [2, 8]: 729 RFU
- MEASURED FLUORESCENCE, RFU +5 min [2, 8]: 971 RFU
- MEASURED FLUORESCENCE, RFU +10 min [2, 8]: 1655 RFU
- MEASURED FLUORESCENCE, RFU 10 sec [2, 9]: 39958 RFU
- MEASURED FLUORESCENCE, RFU +5 min [2, 9]: 58746 RFU
- MEASURED FLUORESCENCE, RFU +10 min [2, 9]: 58909 RFU
- MEASURED FLUORESCENCE, RFU +30 min [2, 9]: 55069 RFU
- MEASURED FLUORESCENCE, RFU 10 sec [2, 10]: 655 RFU
- MEASURED FLUORESCENCE, RFU +5 min [2, 10]: 663 RFU
- MEASURED FLUORESCENCE, RFU +10 min [2, 10]: 831 RFU
- MEASURED FLUORESCENCE, RFU +30 min [2, 10]: 2910 RFU
- MEASURED FLUORESCENCE, RFU 10 sec [2, 11]: 15513 RFU
- MEASURED FLUORESCENCE, RFU +5 min [2, 11]: 39862 RFU
- MEASURED FLUORESCENCE, RFU +10 min [2, 11]: 55056 RFU
- MEASURED FLUORESCENCE, RFU +30 min [2, 11]: 52276 RFU

SMILES: Cc1cc(=O)oc2cc(O[C@H]3O[C@H](CO)[C@@H](O)[C@H](O)[C@H]3O)c(F)cc12 [Example 6F-MUG, 6′-Fluoro-4′-methylumbelliferyl […]-D-glucopyranoside]
- MEASURED FLUORESCENCE, RFU 70° C. 15 min ([1]; pH 6 culture media): 932.5 RFU
- MEASURED FLUORESCENCE, RFU 100° C. 15 + 15 min ([1]; pH 6 culture media): 2005 RFU
- MEASURED FLUORESCENCE, RFU 100° C. 15 min ([1]; pH 6 culture media): 1486.5 RFU
- MEASURED FLUORESCENCE, RFU RT 15 min [1, 3]: 897.5 RFU
- MEASURED FLUORESCENCE, RFU 70° C. 15 min ([1]; pH 7 culture media): 1012 RFU
- MEASURED FLUORESCENCE, RFU 100° C. 15 + 15 min ([1]; pH 7 culture media): 2654.5 RFU
- MEASURED FLUORESCENCE, RFU 100° C. 15 min ([1]; pH 7 culture media): 1690.5 RFU
- MEASURED FLUORESCENCE, RFU RT 15 min ([1]; pH 7 culture media): 924.5 RFU
- MEASURED FLUORESCENCE, RFU 70° C. 15 min ([1]; pH 8 culture media): 1079.5 RFU
- MEASURED FLUORESCENCE, RFU 100° C. 15 + 15 min ([1]; pH 8 culture media): 3160.5 RFU
- MEASURED FLUORESCENCE, RFU 100° C. 15 min ([1]; pH 8 culture media): 2121.5 RFU
- MEASURED FLUORESCENCE, RFU RT 15 min ([1]; pH 8 culture media): 983 RFU
- MEASURED FLUORESCENCE, RFU 70° C. 15 min ([1]; pH 9 culture media): 1218 RFU
- MEASURED FLUORESCENCE, RFU 100° C. 15 + 15 min ([1]; pH 9 culture media): 3964 RFU
- MEASURED FLUORESCENCE, RFU 100° C. 15 min ([1]; pH 9 culture media): 2728 RFU
- MEASURED FLUORESCENCE, RFU RT 15 min ([1]; pH 9 culture media): 994.5 RFU
- MEASURED FLUORESCENCE, RFU +5 min [2, 4]: 1200 RFU
- MEASURED FLUORESCENCE, RFU +30 min [2, 4]: 6663 RFU
- MEASURED FLUORESCENCE, RFU 10 sec [2, 5]: 53357 RFU
- MEASURED FLUORESCENCE, RFU +5 min [2, 5]: 60972 RFU
- MEASURED FLUORESCENCE, RFU +10 min [2, 5]: 58039 RFU
- MEASURED FLUORESCENCE, RFU +30 min [2, 5]: 55966 RFU
- MEASURED FLUORESCENCE, RFU 10 sec [2, 6]: 879 RFU
- MEASURED FLUORESCENCE, RFU 10 sec [2, 7]: 67489 RFU
- MEASURED FLUORESCENCE, RFU +5 min [2, 7]: 80834 RFU
- MEASURED FLUORESCENCE, RFU +10 min [2, 7]: 78888 RFU
- MEASURED FLUORESCENCE, RFU +30 min [2, 7]: 75469 RFU
- MEASURED FLUORESCENCE, RFU 10 sec [2, 8]: 825 RFU
- MEASURED FLUORESCENCE, RFU +5 min [2, 8]: 878 RFU
- MEASURED FLUORESCENCE, RFU +10 min [2, 8]: 1204 RFU
- MEASURED FLUORESCENCE, RFU 10 sec [2, 9]: 49967 RFU
- MEASURED FLUORESCENCE, RFU +5 min [2, 9]: 81623 RFU
- MEASURED FLUORESCENCE, RFU +10 min [2, 9]: 85491 RFU
- MEASURED FLUORESCENCE, RFU +30 min [2, 9]: 78890 RFU
- MEASURED FLUORESCENCE, RFU 10 sec [2, 10]: 870 RFU
- MEASURED FLUORESCENCE, RFU +5 min [2, 10]: 833 RFU
- MEASURED FLUORESCENCE, RFU +10 min [2, 10]: 892 RFU
- MEASURED FLUORESCENCE, RFU +30 min [2, 10]: 2376 RFU
- MEASURED FLUORESCENCE, RFU 10 sec [2, 11]: 22519 RFU
- MEASURED FLUORESCENCE, RFU +5 min [2, 11]: 56806 RFU
- MEASURED FLUORESCENCE, RFU +10 min [2, 11]: 78179 RFU
- MEASURED FLUORESCENCE, RFU +30 min [2, 11]: 76196 RFU

— US12486301B2, “8-fluoro-4-alkylumbelliferyl α-D-glucopyranoside, biological sterilization indicator including the same and its use in a method of determining efficacy of a sterilization process” (Solventum Intellectual Properties Company, priority 2019, dated 2025)
